Structures are written as SMILES.

The first data set can be described thus: Compatibility of pH adjustors with the formulation. It counts as physicochemical. Conditions: in ibuprofen gel formulation. As for the experimental part:
Hydrochloric acid and citric acid were tested as pH adjustors. […] As a consequence, it was selected as the preferred pH adjusting agent. Further details of the ibuprofen gels of the invention are set out in Example 1.
As to `Cl` [Hydrochloric acid], the “compatibility / effect as pH adjustor” value is “precipitated and was not compatible with the formulation”.

Turning to `O=C(O)CC(O)(CC(=O)O)C(=O)O` [Citric acid], the “compatibility / effect as pH adjustor” value was “changed the pH significantly”.

Assay in another data set: not given
Conditions: classification on solubility and permeability; cited from earlier work.
On to `NS(=O)(=O)c1cc2c(cc1Cl)NCNS2(=O)=O` [Hydrochlorothiazide], for which the BCS class entry is “class II”.

As for `c1ccc(-c2ccc(C(c3ccccc3)n3ccnc3)cc2)cc1` (centres unmarked) [Bifonazole], the BCS class result is reported as “Class IV”.

As for `COCCc1ccc(OCC(O)CNC(C)C)cc1` (centres unmarked) [Metoprolol], the BCS class entry is recorded as “Class I”.

For the compound `COc1ccc2cc([C@H](C)C(=O)O)ccc2c1` [Naproxen], the BCS class result is “Class II”.

Turning to `O=C(O)Cc1ccccc1Nc1c(Cl)cccc1Cl` [Diclofenac], the BCS class entry is recorded as “class II”.

In the case of `CN/C(=N/CCSCc1nc[nH]c1C)NC#N` [Cimetidine], the BCS class entry is on record as “Class III”.
